Results taken from patent publication US20260193219A1, “TRIAZINE DERIVATIVES FOR TREATING DISEASES RELATING TO NEUROTROPHINS” (AlzeCure Pharma AB, priority 2020, published 2026).

Assays:
TrkA = target: T1, TrkA (Homo sapiens, UniProt P04629); test: In vitro Trk receptor modulation assay (Enzyme Fragment Complementation), U2OS cells over-expressing TrkA; type: cell-based; settings: compound pre-mixed with ligand (NGF), final 10 ng/mL, 3 hours, modulator mode
T1 construct: expressed in transfected cells; host or cells: U2OS
T1 sequence (P04629 33-796): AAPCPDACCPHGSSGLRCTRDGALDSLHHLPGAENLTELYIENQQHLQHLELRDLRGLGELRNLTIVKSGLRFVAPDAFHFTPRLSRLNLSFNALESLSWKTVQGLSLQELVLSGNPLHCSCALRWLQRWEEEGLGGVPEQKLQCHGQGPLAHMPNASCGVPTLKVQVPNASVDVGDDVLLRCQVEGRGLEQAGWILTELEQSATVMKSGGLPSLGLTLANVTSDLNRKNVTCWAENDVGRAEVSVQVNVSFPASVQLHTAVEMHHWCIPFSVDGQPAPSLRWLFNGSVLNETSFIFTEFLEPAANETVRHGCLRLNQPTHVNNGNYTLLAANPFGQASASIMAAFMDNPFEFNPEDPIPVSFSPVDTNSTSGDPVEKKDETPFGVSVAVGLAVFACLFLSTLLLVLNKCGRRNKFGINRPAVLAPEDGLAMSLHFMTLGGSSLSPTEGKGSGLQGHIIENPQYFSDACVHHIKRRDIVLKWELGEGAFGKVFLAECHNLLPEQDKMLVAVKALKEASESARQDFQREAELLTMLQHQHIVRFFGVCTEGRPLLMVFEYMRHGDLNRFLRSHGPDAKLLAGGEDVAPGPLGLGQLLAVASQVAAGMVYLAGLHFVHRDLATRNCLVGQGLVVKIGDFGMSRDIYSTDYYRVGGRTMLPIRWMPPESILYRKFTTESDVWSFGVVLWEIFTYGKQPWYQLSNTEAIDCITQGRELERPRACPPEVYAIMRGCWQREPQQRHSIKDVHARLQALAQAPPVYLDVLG
Text: (§1) A high throughput cell-based screen was used to identify positive modulators of TrkA and TrkB. The screen involves the use of cell-based assay overexpressing TrkA, or TrkB. The purpose of the assay is to identify compounds that modulate neurotrophin signalling (Forsell et al 2012). The assay can be used in inhibitor mode using a high concentration of ligand, in modulator mode using an intermediate concentration and in agonist mode using a low concentration of ligand.
(§2) The assay uses Enzyme Fragment Complementation (EFC) technique, which is a proximity-based assay. Briefly, cells used in this assay over-express two fusion proteins, i.e. the receptor, which can be one of TrkA or TrkB fused to a small peptide of beta-galactosidase and an adaptor protein, i.e. SHC1 (or any other Trk-adaptor protein) fused to the major part of beta-galactosidase. […] The proximity between the small activating peptide on the receptor and the major part of beta-galactosidase on the adaptor protein leads to an active beta-galactosidase enzyme. The activation of the receptor is quantified by measuring the amount of active beta-galactosidase by its conversion of a non-luminescent substrate into a luminescent product.
(§3) U2OS-cells, over-expressing TrkA or TrkB, were plated in 96- or 384-well plates and incubated overnight. On the following day, test compound was pre-mixed with ligand (NGF) and the ligand-compound mixture is then added to the cells to yield a final ligand concentration of 10 ng/mL. After 3 hours of incubation at room temperature, the incubation is stopped by the addition of a beta-galactosidase substrate mixture containing detergents. The substrate mixture is incubated for 60 minutes at ambient temperature. The luminescence is thereafter read by the use of a plate reader.

TrkB = target: T2, TrkB (Homo sapiens, UniProt Q16620); test: In vitro Trk receptor modulation assay (Enzyme Fragment Complementation), U2OS cells over-expressing TrkB; type: cell-based; settings: compound pre-mixed with ligand (NGF), final 10 ng/mL, 3 hours, modulator mode
T2 construct: expressed in transfected cells; host or cells: U2OS
T2 sequence (Q16620 32-822): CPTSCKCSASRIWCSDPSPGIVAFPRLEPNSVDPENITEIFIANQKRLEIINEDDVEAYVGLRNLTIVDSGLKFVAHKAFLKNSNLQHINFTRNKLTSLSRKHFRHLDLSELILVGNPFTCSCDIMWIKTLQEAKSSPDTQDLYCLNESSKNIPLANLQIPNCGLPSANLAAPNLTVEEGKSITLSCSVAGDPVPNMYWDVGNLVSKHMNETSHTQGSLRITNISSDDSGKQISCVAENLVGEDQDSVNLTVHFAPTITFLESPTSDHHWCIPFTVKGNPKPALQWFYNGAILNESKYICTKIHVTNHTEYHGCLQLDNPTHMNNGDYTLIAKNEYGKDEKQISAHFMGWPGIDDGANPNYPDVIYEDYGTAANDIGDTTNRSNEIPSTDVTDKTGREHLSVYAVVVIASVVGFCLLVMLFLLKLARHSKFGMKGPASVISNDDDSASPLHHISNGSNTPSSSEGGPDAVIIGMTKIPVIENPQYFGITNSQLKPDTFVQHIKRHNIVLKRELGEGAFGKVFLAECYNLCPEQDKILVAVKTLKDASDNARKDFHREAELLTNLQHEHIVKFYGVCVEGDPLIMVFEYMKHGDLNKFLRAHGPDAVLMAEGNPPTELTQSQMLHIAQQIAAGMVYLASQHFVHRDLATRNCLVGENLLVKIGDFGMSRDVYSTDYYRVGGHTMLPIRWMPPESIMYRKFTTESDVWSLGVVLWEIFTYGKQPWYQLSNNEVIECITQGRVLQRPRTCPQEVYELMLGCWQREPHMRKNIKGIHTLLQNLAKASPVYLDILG
Text: as §1, §2, §3

[1] = Human liver microsomal stability; type: in vitro ADME; settings: human liver microsomes 0.5 mg/mL, 3 μM compound, NADPH, 37° C.
Protocol: A 10 mM stock solution (in DMSO) was prepared for each compound. From the intermediate stock solution of 2 mM, a working solution of 0.5 mM was prepared by diluting the compound in Acetonitrile:water (50:50). The compound (1.8 μL of working solution) was spiked in 0.1 M potassium phosphate buffer (260.7 μL), pH 7.4 at a concentration of 3 μM (0.1% DMSO). Following this, human liver microsomes (pooled, Invitrogen, #HMMCPL) (7.5 μL; final protein conc. 0.5 mg/mL) were added. The aforementioned sample was incubated at 37° C. for 5 min. Subsequently, 30 μL of 10 mM NADPH prepared in 0.1 M potassium phosphate buffer was added (as a co-factor) to initiate the reaction. The samples were then incubated at 37° C. for 0, 20, 40, 60 and 120 min.
At each time point (0, 20, 40, 60 and 120 min), 40 μL of the samples were withdrawn and reactions were stopped using 360 μL chilled acetonitrile or methanol containing suitable internal standard (Carbamazepine). The samples were centrifuged and the supernatants was analyzed in duplicate by LC-MS/MS. The percent compound remaining at each time point was calculated with respect to that of the 0 min sample. Control samples were run without NADPH for initial and final time point and blank samples was prepared using DMSO (without the test compound).
For comparison, the experiment was also performed with known Trk receptor signalling modulator 1-methyl-3-[3-methyl-4-(4-trifluoromethanesulfonylphenoxy)phenyl]-1,3,5-triazinane-2,4,6-trione) (ponazuril). Ponazuril is metabolized very slowly in vivo and this prolonged exposure creates an increased risk of side effects if the compound is administered systemically. This causes significant challenges to the development of the compound as a systemic drug.

C57/Bl6 mice = test: Passive avoidance task in scopolamine-treated mice; type: in vivo; settings: mice treated with scopolamine 0.3 mg/kg s.c.; compound single s.c. administration 60 min prior to training, different doses
Protocol: The passive avoidance (PA) is an aversive learning task based on classical (Pavlovian) fear conditioning that allows for analysis of both facilitation and impairment of memory function by adjusting the unconditioned stimulus, i.e. the electrical foot shock. Commonly a cognitive-impairing agent is administered to the animals to mimic the neurochemical disturbances present in various cognitive disorders e.g. cholinergic (scopolamine) and glutamatergic (MK-801) deficits.
Prior to testing, the animals are brought to the experimental room where they were allowed to habituate for 60 min. The test is conducted using a modified shuttle box with two communicating compartments of equal size with a small sliding door built into the separating wall and a stainless-steel bar floor. One of the compartments is not illuminated and thus black whereas the other compartment (the light one) is illuminated by an electric bulb, installed on the top of a plexiglass cover. The PA training is conducted in a single session. […] Latency to cross over into the dark compartment (training latency) is recorded. […] The latency to cross over into the dark compartment with all four feet is measured (retention latency) as well as time in bright compartment and a number of other relevant parameters (e.g. number of visits in the dark compartment). […]

C57/B16 mice = test: Forced Swim Test; type: in vivo; settings: 1 mg/kg single s.c. administration 30 min prior to FST on day 2
Protocol: The Forced Swim Test (FST) is a commonly used test in rodents to assess depression-like behaviour (Porsolt et al., Nature, 1977, 266, 730-732). The model measures a learned helplessness response and has shown to have predictive validity for clinical antidepressants, e.g. SSRIs.
The mouse version consists of a vertical glass cylinder (25 cm high, 13 cm in diameter) filled with tap water up to 16 cm in height (25±0.5° C.). This means that the animal cannot escape (climb out) nor stand on its tail or hindlimbs. After a certain time the animal realize that it cannot get out and will stop struggling to get out, and instead become immobile and float.
The animal is placed inside the cylinder and allowed two swimming sessions: a 10 min pre-test (on day 1), 24 h later (day 2) a second 6 min test is conducted. The total duration of immobility and latency to the first immobility are recorded during the second 6 min test. Immobility is defined as floating passively in an upright position in the water, with only small movements necessary to keep the head above the water surface. Animals are then gently removed from water and dried.
Vehicle (20% DMSO in 0.1M PBS) or 1 mg/kg of the compound of Example 1 were administered to C57/B16 mice as a single s.c. administration 30 min prior to FST on day 2. As comparator, fluoxetine is commonly used a dose of 20 mg/kg. […]

Cc1cccc(-n2c(=O)[nH]c(=O)n(-c3ccc(Oc4ccccc4)c(C)c3)c2=O)c1 [Example 1, 1-(3-methyl-4-phenoxyphenyl)-3-(3-methylphenyl)-1,3,5-triazinane-2,4,6-trione]
EC50 (TrkA): 120 nM | EC50 (TrkB): 150 nM | % of parent compound metabolized after 120 min [1]: 26.8% | cognitive function, retention latency within the bright area (passive avoidance) (C57/Bl6 mice): improves cognitive function | time spent immobile (Forced Swim Test) compared to vehicle control (C57/B16 mice): decreased time spent immobile
